According to patent US11291947B2, “Composition for removing sulfur-containing compound” (KURARAY CO., LTD., priority 2016, dated 2022):
Where two headings read alike, the source gives them in different places.

Columns and labels:
[1] = cited from earlier work
[2] = type: physicochemical
Method: 50 mL of each of SAL and acrolein was charged in 50-mL three-necked flask, and the contents were subjected to temperature rise to 50° C. in a nitrogen atmosphere. On the occasion when the content of each of SAL and acrolein immediately after the temperature rise was defined as 100%, a change of the content ratio was observed according to the calibration curve method by means of gas chromatography with an internal standard.
[Gas Chromatography Analysis]
Analysis Instrument: GC-14A (Available from Shimadzu Corporation) Detector: FID (Hydrogen Flame Ionization Detector)
Column used: DB-1701 (length: 50 m, film thickness: 1 μm, inner diameter: 0.32 mm) (available from Agilent Technologies)
Analysis conditions: Injection temperature: 250° C., detection temperature: 250° C.
Temperature rise conditions: 70° C.→(temperature rise at 5° C./min)→250° C.
Internal standard substance: Diglyme (diethylene glycol dimethyl ether)

[3] = Hydrogen sulfide removal in distilled water (autoclave); conditions: distilled water, 5,000 ppm added, 80° C., 5 hours
Method: 20 g of distilled water was put into a 100-mL autoclave equipped with a thermometer and a stirrer, and pressurized up to 0.3 MPa with a mixed gas having a composition of 1 vol % of hydrogen sulfide and 99 vol % of nitrogen introduced thereinto. This was stirred until the hydrogen sulfide concentration in the vapor phase part became constant, and then the hydrogen sulfide concentration in the vapor phase part in the autoclave was measured with a Kitagawa gas detector (here, a […] available from Komyo Rikagaku Kogyo K.K. was attached to the gas collector “AP-20”), and was 7,500 ppm by volume. Next, SAL was added thereto in an amount to be 5,000 ppm relative to the distilled water. The amount of SAL added was 1.19 mmol, and the amount of hydrogen sulfide existing in the apparatus was 0.10 mmol. Subsequently, the apparatus was heated up to 80° C. with stirring at 800 rpm to continue the reaction for 5 hours. After the reaction, the system was cooled down to room temperature, and the hydrogen sulfide concentration in the vapor phase part was measured and was 5,000 ppm by volume. The removal rate was 33%.
The same test as in Example 2 was carried out except that acrolein was used in place of SAL. After the reaction, the hydrogen sulfide concentration in the vapor phase part was measured and was 5,000 ppm by volume. The removal rate was 33%.

Rat = conditions: versus acrolein; cited from earlier work
[4] = Hydrogen sulfide removal in kerosene (three-neck flask); conditions: 20 g kerosene, 1.5 g added, room temperature, 5 hours
Method: 20 g of kerosene (available from FUJIFILM Wako Pure Chemical Corporation) was put into a 50-mL three-neck flask, and a mixed gas having a composition of 1 vol % of hydrogen sulfide and 99 vol % of nitrogen was made to circulate therein at a flow rate of 50 mL/min to thereby purge the vapor in the three-neck flask with stirring at 800 rpm. After 2 hours, the circulation of the mixed gas was stopped, then the three-neck flask was sealed up, and the hydrogen sulfide concentration in the vapor phase part in the three-neck flask was measured with a Kitagawa gas detector and was 8,200 ppm by volume. Next, 1.5 g of SAL was added thereto and reacted for 5 hours at room temperature with stirring the apparatus at 800 rpm. After the reaction, the hydrogen sulfide concentration in the vapor phase part in the three-neck flask was measured and was 5,300 ppm by volume. The removal rate was 35%.
After the reaction, the hydrogen sulfide concentration in the vapor phase part in the three-neck flask was measured and was 6,600 ppm by volume. The removal rate was 20%.

[5] = type: physicochemical; conditions: pH 1.7
Method: Each of SAL and acrolein was dissolved in 0.5 mol/L of phosphoric acid buffer solutions having a pH different from each other, thereby preparing 0.1 wt % solutions. 50 mL of each of the solutions was charged in a sample vial in a nitrogen atmosphere and stored at 23±2° C. On the occasion when the content of each of SAL and acrolein at the time of preparation was defined as 100%, a change of the content ratio was observed according to the absolute calibration curve by means of high-performance liquid chromatography analysis.
[Preparation of Phosphoric Acid Buffer Solution]
pH 1.7: 4.9 g of 75% phosphoric acid and 7.8 g of sodium dihydrogen phosphate dihydrate were dissolved in 200 mL of distilled water.
pH 6.2: 7.8 g of sodium dihydrogen phosphate dihydrate and 7.1 g of disodium hydrogen phosphate were dissolved in 200 mL of distilled water.
pH 8.1: 0.3 g of sodium dihydrogen phosphate dihydrate and 13.9 g of disodium hydrogen phosphate were dissolved in 200 mL of distilled water.
[High-Performance Liquid Chromatography Analysis]
Analysis Instrument: Prominence System (Available from Shimadzu Corporation)
Column used: Cadenza CD-C18 (length: […], inner diameter: 4.6 mm)
Developing solution: H2O/MeOH=45/55 (volume ratio), H3PO4=1 mol/L

[6] = 50° C., nitrogen atmosphere, 0 hour (defined as 100%)
[7] = 50° C., nitrogen atmosphere, 2 hours elapsed
[8] = 50° C., nitrogen atmosphere, 4 hours elapsed
[9] = 50° C., nitrogen atmosphere, 6 hours elapsed
[10] = 50° C., nitrogen atmosphere, 10 hours elapsed

Question: Which results are given for `C=CC=O` [Acrolein, acrolein, reference compound]?
Answer: Fire Service Act water solubility class [1]: water-insoluble; content ratio [2, 6]: 100.0%; content ratio [2, 7]: 99.5%; content ratio [2, 8]: 98.3%; content ratio [2, 9]: 98.1%; content ratio [2, 10]: 96.6%; ratio lost ([2]; 50° C., nitrogen atmosphere, after 10 hours): 3.4%; removal rate [3]: 33%

Question: Which results are given for `CC(C)=CCCC(C)=CC=O` [Citral, 3,7-dimethyl-2,6-octadienal]?
Answer: toxicity and safety (comparison in words) (Rat): extremely low in the toxicity and safe as compared with acrolein; removal rate [4]: 20%

Question: With `CC(C)=CC=O` [SAL, 3-methyl-2-butenal] as the compound, how does the “toxicity and safety (comparison in words)” value (Rat) read?
Answer: extremely low in the toxicity and safe as compared with acrolein

Question: And the removal rate [4]?
Answer: 35%

Question: What about the “pH stability (comparison in words)” value [5] of the same compound?
Answer: extremely high in the pH stability as compared with acrolein

Question: What about the “Fire Service Act water solubility class” value [1] of the same compound?
Answer: water-insoluble

Question: What about the “thermal stability (comparison in words)” value [2] of the same compound?
Answer: extremely high in the thermal stability as compared with acrolein

Question: And the content ratio [2, 6]?
Answer: 100.0%

Question: What about the content ratio [2, 7] of the same compound?
Answer: 100.0%

Question: And the content ratio [2, 8]?
Answer: 100.0%

Question: What about the content ratio [2, 9] of the same compound?
Answer: 100.0%

Question: And the content ratio [2, 10]?
Answer: 99.9%

Question: What about the removal rate [3] of the same compound?
Answer: 33%
